Measurements: PubChem BioAssay (NCI)
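Briefly, cells in 96-well plates were exposed to five compound concentrations for 48 h, and endpoints were estimated by linear interpolation. TGI is the concentration that stops growth completely.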

Experiments:
Experiment in all cases: inhibition of tumour cell growth, NCI panel, 48 h
CAKI-1 renal = tested on: CAKI-1 renal
OVCAR-5 ovarian = tested on: OVCAR-5 ovarian
MDA-MB-231 breast = tested on: MDA-MB-231 breast
OVCAR-8 ovarian = tested on: OVCAR-8 ovarian
PC-3 prostate = tested on: PC-3 prostate
NCI-H23 lung = tested on: NCI-H23 lung
NCI/ADR-RES ovarian = tested on: NCI/ADR-RES ovarian
MCF7 breast = tested on: MCF7 breast
786-0 renal = tested on: 786-0 renal
UACC-62 melanoma = tested on: UACC-62 melanoma
HCC-2998 colon = tested on: HCC-2998 colon
HT29 colon = tested on: HT29 colon
SW-620 colon = tested on: SW-620 colon
RPMI-8226 leukemia = tested on: RPMI-8226 leukemia
MDA-MB-435 = tested on: MDA-MB-435
T-47D breast = tested on: T-47D breast
NCI-H522 lung = tested on: NCI-H522 lung
SNB-19 CNS = tested on: SNB-19 CNS
NCI-H460 lung = tested on: NCI-H460 lung
A549 NSCLC = tested on: A549 NSCLC
MALME-3M melanoma = tested on: MALME-3M melanoma
HOP-92 NSCLC = tested on: HOP-92 NSCLC
SN12C renal = tested on: SN12C renal
HCT-116 colon = tested on: HCT-116 colon
SF-268 CNS = tested on: SF-268 CNS
UACC-257 melanoma = tested on: UACC-257 melanoma
OVCAR-4 ovarian = tested on: OVCAR-4 ovarian
HCT-15 colon = tested on: HCT-15 colon
M14 melanoma = tested on: M14 melanoma
EKVX NSCLC = tested on: EKVX NSCLC
HOP-62 NSCLC = tested on: HOP-62 NSCLC
BT-549 breast = tested on: BT-549 breast
SK-MEL-28 melanoma = tested on: SK-MEL-28 melanoma
NCI-H226 lung = tested on: NCI-H226 lung
SF-295 CNS = tested on: SF-295 CNS
DU-145 prostate = tested on: DU-145 prostate
CCRF-CEM leukemia = tested on: CCRF-CEM leukemia
RXF 393 renal = tested on: RXF 393 renal
KM12 colon = tested on: KM12 colon
SK-OV-3 ovarian = tested on: SK-OV-3 ovarian
SF-539 CNS = tested on: SF-539 CNS
COLO 205 colon = tested on: COLO 205 colon
SR leukemia = tested on: SR leukemia
SK-MEL-5 melanoma = tested on: SK-MEL-5 melanoma
OVCAR-3 ovarian = tested on: OVCAR-3 ovarian
MOLT-4 leukemia = tested on: MOLT-4 leukemia
SK-MEL-2 melanoma = tested on: SK-MEL-2 melanoma
TK-10 renal = tested on: TK-10 renal
HS 578T breast = tested on: HS 578T breast
ACHN renal = tested on: ACHN renal
SNB-75 CNS = tested on: SNB-75 CNS
MDA-N = tested on: MDA-N
UO-31 renal = tested on: UO-31 renal
U251 CNS = tested on: U251 CNS
K-562 leukemia = tested on: K-562 leukemia
HL-60(TB) leukemia = tested on: HL-60(TB) leukemia
IGROV1 ovarian = tested on: IGROV1 ovarian
LOX IMVI melanoma = tested on: LOX IMVI melanoma

Compound: Cc1ccc(Nc2nc3ccccc3c(=O)n2N)cc1
- TGI (CAKI-1 renal): > 100 µM
- TGI (OVCAR-5 ovarian): > 100 µM
- TGI (MDA-MB-231 breast): > 100 µM
- TGI (OVCAR-8 ovarian): > 100 µM
- TGI (PC-3 prostate): > 100 µM
- TGI (NCI-H23 lung): > 100 µM
- TGI (NCI/ADR-RES ovarian): > 100 µM
- TGI (MCF7 breast): > 100 µM
- TGI (786-0 renal): > 100 µM
- TGI (UACC-62 melanoma): > 100 µM
- TGI (HCC-2998 colon): > 100 µM
- TGI (HT29 colon): > 100 µM
- TGI (SW-620 colon): > 100 µM
- TGI (RPMI-8226 leukemia): > 100 µM
- TGI (MDA-MB-435): > 100 µM
- TGI (T-47D breast): > 100 µM
- TGI (NCI-H522 lung): > 100 µM
- TGI (SNB-19 CNS): > 100 µM
- TGI (NCI-H460 lung): > 100 µM
- TGI (A549 NSCLC): > 100 µM
- TGI (MALME-3M melanoma): > 100 µM
- TGI (HOP-92 NSCLC): > 100 µM
- TGI (SN12C renal): > 100 µM
- TGI (HCT-116 colon): > 100 µM
- TGI (SF-268 CNS): > 100 µM
- TGI (UACC-257 melanoma): > 100 µM
- TGI (OVCAR-4 ovarian): > 100 µM
- TGI (HCT-15 colon): > 100 µM
- TGI (M14 melanoma): > 100 µM
- TGI (EKVX NSCLC): > 100 µM
- TGI (HOP-62 NSCLC): > 100 µM
- TGI (BT-549 breast): > 100 µM
- TGI (SK-MEL-28 melanoma): > 100 µM
- TGI (NCI-H226 lung): > 100 µM
- TGI (SF-295 CNS): > 100 µM
- TGI (DU-145 prostate): > 100 µM
- TGI (CCRF-CEM leukemia): > 100 µM
- TGI (RXF 393 renal): > 100 µM
- TGI (KM12 colon): > 100 µM
- TGI (SK-OV-3 ovarian): > 100 µM
- TGI (SF-539 CNS): > 100 µM
- TGI (COLO 205 colon): > 100 µM
- TGI (SR leukemia): > 100 µM
- TGI (SK-MEL-5 melanoma): > 100 µM
- TGI (OVCAR-3 ovarian): > 100 µM
- TGI (MOLT-4 leukemia): > 100 µM
- TGI (SK-MEL-2 melanoma): > 100 µM
- TGI (TK-10 renal): > 100 µM
- TGI (HS 578T breast): > 100 µM
- TGI (ACHN renal): > 100 µM
- TGI (SNB-75 CNS): > 100 µM
- TGI (MDA-N): > 100 µM
- TGI (UO-31 renal): > 100 µM
- TGI (U251 CNS): > 100 µM
- TGI (K-562 leukemia): > 100 µM
- TGI (HL-60(TB) leukemia): > 100 µM
- TGI (IGROV1 ovarian): > 100 µM
- TGI (LOX IMVI melanoma): > 100 µM

Compound: CC1(c2ccccc2)CCN(C2CC2)CO1 (stereo unspecified)
- TGI (CAKI-1 renal): 36.5 µM
- TGI (OVCAR-5 ovarian): 33.3 µM
- TGI (MDA-MB-231 breast): 38.4 µM
- TGI (OVCAR-8 ovarian): > 100 µM
- TGI (PC-3 prostate): > 100 µM
- TGI (NCI-H23 lung): 85.2 µM
- TGI (NCI/ADR-RES ovarian): 46.6 µM
- TGI (MCF7 breast): 32 µM
- TGI (786-0 renal): 29.9 µM
- TGI (UACC-62 melanoma): 32 µM
- TGI (HCC-2998 colon): 30.8 µM
- TGI (HT29 colon): 35.7 µM
- TGI (SW-620 colon): 36.2 µM
- TGI (RPMI-8226 leukemia): > 100 µM
- TGI (MDA-MB-435): > 100 µM
- TGI (T-47D breast): 45.1 µM
- TGI (SNB-19 CNS): > 100 µM
- TGI (NCI-H460 lung): 28.1 µM
- TGI (A549 NSCLC): > 100 µM
- TGI (MALME-3M melanoma): 34.4 µM
- TGI (SN12C renal): 36.6 µM
- TGI (HCT-116 colon): 40.9 µM
- TGI (SF-268 CNS): 35.4 µM
- TGI (UACC-257 melanoma): 47.8 µM
- TGI (OVCAR-4 ovarian): 33.9 µM
- TGI (HCT-15 colon): 30.1 µM
- TGI (M14 melanoma): 31 µM
- TGI (EKVX NSCLC): 41.4 µM
- TGI (HOP-62 NSCLC): > 100 µM
- TGI (BT-549 breast): 32.3 µM
- TGI (SK-MEL-28 melanoma): 37.5 µM
- TGI (NCI-H226 lung): > 100 µM
- TGI (SF-295 CNS): > 100 µM
- TGI (DU-145 prostate): > 100 µM
- TGI (CCRF-CEM leukemia): > 100 µM
- TGI (RXF 393 renal): 69.3 µM
- TGI (KM12 colon): 30.4 µM
- TGI (SK-OV-3 ovarian): > 100 µM
- TGI (COLO 205 colon): 39.8 µM
- TGI (SR leukemia): 65.5 µM
- TGI (SK-MEL-5 melanoma): > 100 µM
- TGI (OVCAR-3 ovarian): 31.7 µM
- TGI (MOLT-4 leukemia): 43.5 µM
- TGI (SK-MEL-2 melanoma): > 100 µM
- TGI (TK-10 renal): 26.7 µM
- TGI (HS 578T breast): 44 µM
- TGI (ACHN renal): 31.7 µM
- TGI (SNB-75 CNS): > 100 µM
- TGI (MDA-N): 31 µM
- TGI (UO-31 renal): 35.8 µM
- TGI (U251 CNS): > 100 µM
- TGI (K-562 leukemia): > 100 µM
- TGI (HL-60(TB) leukemia): > 100 µM
- TGI (IGROV1 ovarian): 40.2 µM
- TGI (LOX IMVI melanoma): 39.9 µM

Compound: COc1ccc([C@H]2CC(=O)C[C@H](c3ccc(OC)cc3OC)C23C(=O)c2ccccc2C3=O)c(OC)c1
- TGI (CAKI-1 renal): > 100 µM
- TGI (OVCAR-5 ovarian): > 100 µM
- TGI (MDA-MB-231 breast): > 100 µM
- TGI (OVCAR-8 ovarian): > 100 µM
- TGI (PC-3 prostate): > 100 µM
- TGI (NCI-H23 lung): > 100 µM
- TGI (NCI/ADR-RES ovarian): > 100 µM
- TGI (MCF7 breast): > 100 µM
- TGI (786-0 renal): > 100 µM
- TGI (UACC-62 melanoma): > 100 µM
- TGI (HCC-2998 colon): > 100 µM
- TGI (HT29 colon): > 100 µM
- TGI (SW-620 colon): > 100 µM
- TGI (RPMI-8226 leukemia): > 100 µM
- TGI (MDA-MB-435): > 100 µM
- TGI (T-47D breast): > 100 µM
- TGI (NCI-H522 lung): > 100 µM
- TGI (SNB-19 CNS): > 100 µM
- TGI (NCI-H460 lung): > 100 µM
- TGI (A549 NSCLC): > 100 µM
- TGI (MALME-3M melanoma): > 100 µM
- TGI (HOP-92 NSCLC): > 100 µM
- TGI (SN12C renal): > 100 µM
- TGI (HCT-116 colon): > 100 µM
- TGI (SF-268 CNS): > 100 µM
- TGI (UACC-257 melanoma): > 100 µM
- TGI (OVCAR-4 ovarian): > 100 µM
- TGI (HCT-15 colon): > 100 µM
- TGI (M14 melanoma): > 100 µM
- TGI (EKVX NSCLC): > 100 µM
- TGI (HOP-62 NSCLC): > 100 µM
- TGI (BT-549 breast): > 100 µM
- TGI (SK-MEL-28 melanoma): > 100 µM
- TGI (NCI-H226 lung): > 100 µM
- TGI (SF-295 CNS): > 100 µM
- TGI (DU-145 prostate): > 100 µM
- TGI (CCRF-CEM leukemia): > 100 µM
- TGI (RXF 393 renal): > 100 µM
- TGI (KM12 colon): > 100 µM
- TGI (SK-OV-3 ovarian): > 100 µM
- TGI (SF-539 CNS): > 100 µM
- TGI (COLO 205 colon): > 100 µM
- TGI (SR leukemia): > 100 µM
- TGI (SK-MEL-5 melanoma): > 100 µM
- TGI (OVCAR-3 ovarian): > 100 µM
- TGI (MOLT-4 leukemia): > 100 µM
- TGI (SK-MEL-2 melanoma): > 100 µM
- TGI (TK-10 renal): > 100 µM
- TGI (HS 578T breast): > 100 µM
- TGI (ACHN renal): > 100 µM
- TGI (SNB-75 CNS): > 100 µM
- TGI (MDA-N): > 100 µM
- TGI (UO-31 renal): > 100 µM
- TGI (U251 CNS): > 100 µM
- TGI (K-562 leukemia): > 100 µM
- TGI (HL-60(TB) leukemia): > 100 µM
- TGI (IGROV1 ovarian): > 100 µM
- TGI (LOX IMVI melanoma): > 100 µM
